Columns and labels:
Test in all cases: In vitro MMP inhibition analysis (fluorogenic peptide substrate cleavage), Ki
Assay type in all cases: biochemical
Settings in all cases: Table 2
[1] = molecular target: T1, Human recombinant MMP-9 (Homo sapiens, UniProt P14780)
T1 construct: made in house; host or cells: MMP-9-transfected HT1080 cells (spent media)
Method in brief: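 Recombinant MMP-9 purified from transfected HT1080 cell media, activated with APMA, trypsin or recombinant MMP-3, assayed in Tris buffer pH 7.5 with CaCl2 and 4 μM fluorogenic MCA/Dpa peptide, 1 h at room temperature (ex 330/em 420 nm). Ki from Morrison-equation regression of velocity; substrate at or below Km, uncorrected.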

[2] = molecular target: T2, Human recombinant MMP-14 (Homo sapiens, UniProt P50281)
T2 construct: The catalytic domain enzyme was expressed in E. coli inclusion bodies, solubilized in urea; made in house
Method in brief: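 Refolded catalytic domain of MMP-14 expressed in E. coli, activated with APMA or trypsin, incubated 1 h at room temperature with 4 μM MCA-peptide substrate in Tris buffer pH 7.5 with CaCl2. Cleavage rate followed by fluorescence (ex 330/em 420 nm). Ki from Morrison-equation fit; substrate at or below Km, so no substrate correction.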

[3] = molecular target: T3, Human recombinant MMP-2 (Homo sapiens, UniProt P08253)
T3 construct: made in house; host or cells: MMP-2-transfected p2AHT2 cells
T3 sequence (P08253 110-660): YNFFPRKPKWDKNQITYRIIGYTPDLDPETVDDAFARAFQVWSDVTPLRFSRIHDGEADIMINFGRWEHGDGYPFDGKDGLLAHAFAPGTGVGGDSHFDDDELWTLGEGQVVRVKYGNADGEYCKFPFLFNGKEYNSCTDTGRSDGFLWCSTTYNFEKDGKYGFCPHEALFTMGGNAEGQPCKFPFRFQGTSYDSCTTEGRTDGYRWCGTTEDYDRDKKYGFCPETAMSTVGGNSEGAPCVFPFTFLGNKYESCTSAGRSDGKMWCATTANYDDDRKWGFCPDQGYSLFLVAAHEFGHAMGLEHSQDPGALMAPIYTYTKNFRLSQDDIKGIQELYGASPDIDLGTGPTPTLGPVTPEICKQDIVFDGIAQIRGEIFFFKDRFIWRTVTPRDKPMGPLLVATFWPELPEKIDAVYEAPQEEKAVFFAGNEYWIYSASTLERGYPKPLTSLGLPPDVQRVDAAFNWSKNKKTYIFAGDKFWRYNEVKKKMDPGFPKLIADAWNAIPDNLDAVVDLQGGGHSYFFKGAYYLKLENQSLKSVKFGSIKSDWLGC
Method in brief: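 Human recombinant MMP-2 from transfected p2AHT2 cells was activated with APMA or trypsin and incubated 1 h at room temperature with compounds and 4 μM MCA-RPLGL(Dpa)ARER-NH2. Buffer was pH 7.5 Tris/NaCl/CaCl2, and fluorescence was read at ex 330/em 420 nm. Ki was fitted by Morrison's equation without substrate correction.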

T1 sequence (P14780 107-707 limits assumed): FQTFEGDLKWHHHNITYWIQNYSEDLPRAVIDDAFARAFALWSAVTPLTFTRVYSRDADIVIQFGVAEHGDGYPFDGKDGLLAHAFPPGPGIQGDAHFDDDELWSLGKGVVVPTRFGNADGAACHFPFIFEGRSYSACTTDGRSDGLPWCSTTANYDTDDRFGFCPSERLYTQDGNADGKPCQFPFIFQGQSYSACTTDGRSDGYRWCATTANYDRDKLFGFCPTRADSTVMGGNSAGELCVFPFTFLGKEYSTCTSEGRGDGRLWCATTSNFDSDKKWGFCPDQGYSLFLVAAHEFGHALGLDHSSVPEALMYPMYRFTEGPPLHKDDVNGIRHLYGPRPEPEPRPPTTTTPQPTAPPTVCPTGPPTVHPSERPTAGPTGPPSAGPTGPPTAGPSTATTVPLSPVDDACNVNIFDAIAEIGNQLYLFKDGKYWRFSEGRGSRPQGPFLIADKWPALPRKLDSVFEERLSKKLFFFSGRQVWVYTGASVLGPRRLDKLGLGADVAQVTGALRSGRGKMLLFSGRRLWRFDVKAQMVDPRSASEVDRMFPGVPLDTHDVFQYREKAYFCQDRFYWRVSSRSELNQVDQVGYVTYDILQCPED

| Structure (SMILES) | Ki [1] | Ki [2] | Ki [3] |
| --- | --- | --- | --- |
| COCCOc1ccc(-c2ccc(S(=O)(=O)C3(C(=O)NO)CCOCC3)cc2)cc1 [Example 70] | 1.11 nM | 299 nM | 0.177 nM |
| CCCCOc1ccc(-c2ccc(S(=O)(=O)C3(C(=O)NO)CCOCC3)cc2)cc1 [Example 77] | 0.398 nM | 174 nM | 0.18 nM |
| CCCCOc1ccc(-c2ccc(S(=O)(=O)C3(C(=O)NO)CCOCC3)cc2)cc1C(F)(F)F [Example 78] | 132 nM | 9570 nM | 55.5 nM |
| CCc1ccc(-c2ccc(S(=O)(=O)C3(C(=O)NO)CCOCC3)cc2)cc1 [Example 79] | 0.635 nM | 27.4 nM | 0.184 nM |
| O=C(NO)C1(S(=O)(=O)c2ccc(-c3ccc(OC(F)(F)F)cc3)cc2)CCOCC1 [Example 80] | 0.622 nM | 89.1 nM | 0.098 nM |
| Cc1ccc(-c2ccc(S(=O)(=O)C3(C(=O)NO)CCOCC3)cc2)nc1 [Example 81] | 0.993 nM | 22.6 nM | 0.106 nM |
| O=C(NO)C1(S(=O)(=O)c2ccc(-c3ccc(C(F)(F)F)cn3)cc2)CCOCC1 [Example 82] | 1.99 nM | 65.4 nM | 0.2 nM |
| CCCCNc1cnc(-c2ccc(S(=O)(=O)C3(C(=O)NO)CCOCC3)cc2)cn1 [Example 83] | 2.75 nM | 6360 nM | 7.44 nM |
| O=C(NO)C1(S(=O)(=O)c2ccc(-c3ccc(F)c(C(F)(F)F)c3)cc2)CCOCC1 [Example 84] | 97.1 nM | 989 nM | 10.1 nM |
| O=C(NO)C1(S(=O)(=O)c2ccc(-c3ccc(OCC(F)(F)C(F)F)c(C(F)(F)F)c3)cc2)CCOCC1 [Example 85] | 248 nM | 2800 nM | 33.4 nM |
| CC(C)CCOc1ccc(-c2ccc(S(=O)(=O)C3(C(=O)NO)CCOCC3)cc2)cc1C(F)(F)F [Example 86] | 414 nM | > 10000 nM | 85.7 nM |
| CCCc1ccc(-c2ccc(S(=O)(=O)C3(C(=O)NO)CCOCC3)cc2)cc1 [Example 87] | 0.176 nM | 62.3 nM | 0.158 nM |
| O=C(NO)C1(S(=O)(=O)c2ccc(-c3cnc(OCCCC(F)(F)F)cn3)cc2)CCOCC1 [Example 88] | 2.31 nM | 539 nM | 0.15 nM |
| CCCCc1ccc(-c2ccc(S(=O)(=O)C3(C(=O)NO)CCOCC3)cc2)nc1 [Example 89] | 0.0528 nM | 139 nM | 0.0488 nM |
| O=C(NO)C1(S(=O)(=O)c2ccc(-c3ccc(OCC(F)(F)C(F)(F)F)c(C(F)(F)F)c3)cc2)CCOCC1 [Example 90] | 216 nM | 2100 nM | 28.3 nM |
| CCCCc1ccc(-c2ccc(S(=O)(=O)C3(C(=O)NO)CCOCC3)cc2)cc1 [Example 91] | 0.266 nM | 321 nM | 0.374 nM |
| CCC(C)COc1ccc(-c2ccc(S(=O)(=O)C3(C(=O)NO)CCOCC3)cc2)cc1C(F)(F)F (stereo not drawn) [Example 92] | 106 nM | 7410 nM | 58.1 nM |
| CCNc1cnc(-c2ccc(S(=O)(=O)C3(C(=O)NO)CCOCC3)cc2)cn1 [Example 93] | 4.86 nM | 4450 nM | 4.16 nM |
| O=C(NO)C1(S(=O)(=O)c2ccc(-c3cnc(-n4cccc4)cn3)cc2)CCOCC1 [Example 94] | 3.4 nM | 2940 nM | 1.09 nM |
| O=C(NO)C1(S(=O)(=O)c2ccc(-c3ccc(OCC(F)(F)C(F)(F)F)cc3)cc2)CCOCC1 [Example 95] | 0.752 nM | 463 nM | 0.17 nM |

| Structure (SMILES) | Ki [1] | Ki [2] | Ki [3] |
| --- | --- | --- | --- |
| O=C(NO)C1(S(=O)(=O)c2ccc(-c3ccc(C(F)(F)F)cc3F)cc2)CCOCC1 [Example 96] | 2.14 nM | 224 nM | 0.668 nM |
| CC(C)c1ccc(-c2ccc(S(=O)(=O)C3(C(=O)NO)CCOCC3)cc2)cc1 [Example 97] | 5.4 nM | 109 nM | 1.14 nM |
| COC/C(Cl)=C/c1cnc(-c2ccc(S(=O)(=O)C3(C(=O)NO)CCOCC3)cc2)cn1 [Example 165] | 267 nM | 1110 nM | 2.46 nM |
| CC(C)CC#Cc1cnc(-c2ccc(S(=O)(=O)C3(C(=O)NO)CCOCC3)cc2)cn1 [Example 166] | 0.1 nM | 264 nM | 0.4 nM |
| O=C(NO)C1(S(=O)(=O)c2ccc(-c3ccc(CCC(F)(F)C(F)(F)F)cc3)cc2)CCS(=O)(=O)CC1 [Example 167] | 12.5 nM | 3590 nM | 1.9 nM |
| O=C(NO)C1(S(=O)(=O)c2ccc(-c3cnc(OCC4CC4)cn3)cc2)CCOCC1 [Example 168] | 0.19 nM | 46.2 nM | 0.08 nM |
| CC(C)CCc1cnc(-c2ccc(S(=O)(=O)C3(C(=O)NO)CCOCC3)cc2)cn1 [Example 169] | 0.59 nM | 2520 nM | 1.09 nM |
| CC(C)COc1cnc(-c2ccc(S(=O)(=O)C3(C(=O)NO)CCOCC3)cc2)cn1 [Example 170] | 0.08 nM | 234 nM | 0.09 nM |
| O=C(N1CCOCC1)N1CCC(C(=O)NO)(S(=O)(=O)c2ccc(-c3ccc(CCC(F)(F)C(F)(F)F)cc3)cc2)CC1 [Example 171] | 0.62 nM | 633 nM | 0.24 nM |
| O=C(NO)C1(S(=O)(=O)c2ccc(-c3cnc(OCCC4CC4)cn3)cc2)CCOCC1 [Example 172] | 0.06 nM | 222 nM | 0.07 nM |
| CN(C)C(=O)N1CCC(C(=O)NO)(S(=O)(=O)c2ccc(-c3ccc(CCC(F)(F)C(F)(F)F)cc3)cc2)CC1 [Example 173] | 0.67 nM | 441 nM | 0.35 nM |
| CC(C)N(C(=O)N1CCC(C(=O)NO)(S(=O)(=O)c2ccc(-c3ccc(CCC(F)(F)C(F)(F)F)cc3)cc2)CC1)C(C)C [Example 174] | 3.77 nM | 1180 nM | 1.24 nM |
| O=C(N1CCCCC1)N1CCC(C(=O)NO)(S(=O)(=O)c2ccc(-c3ccc(CCC(F)(F)C(F)(F)F)cc3)cc2)CC1 [Example 175] | 1.35 nM | > 10000 nM | 0.42 nM |
| O=C(NO)C1(S(=O)(=O)c2ccc(-c3ccc(CCC(F)(F)F)cn3)cc2)CCOCC1 [Example 176] | 0.04 nM | 111 nM | 0.04 nM |
| COCCC(C(=O)NO)S(=O)(=O)c1ccc(-c2ccc(CCC(F)(F)C(F)(F)F)cc2)cc1 (stereo not drawn) [Example 177] | 5.36 nM | 5860 nM | 1.57 nM |
| O=C(NO)C1(S(=O)(=O)c2ccc(-c3cnc(OCC4CCC4)cn3)cc2)CCOCC1 [Example 178] | 0.14 nM | 326 nM | 0.1 nM |
| COc1ccc(C(=O)c2cnc(-c3ccc(S(=O)(=O)C4(C(=O)NO)CCOCC4)cc3)cn2)cc1 [Example 179] | 38.6 nM | 218 nM | 2.99 nM |
| O=C(NO)C1(S(=O)(=O)c2ccc(-c3cnc(OCCC4CCCC4)cn3)cc2)CCOCC1 [Example 180] | 1.03 nM | 1140 nM | 0.295 nM |
| COC(=O)c1ccc2cc(-c3ccc(S(=O)(=O)C4(C(=O)NO)CCOCC4)cc3)ccc2c1 [Example 181] | 0.264 nM | 623 nM | 0.272 nM |
| COc1ccc(Cc2cnc(-c3ccc(S(=O)(=O)C4(C(=O)NO)CCOCC4)cc3)cn2)cc1 [Example 182] | 246 nM | > 10000 nM | 114 nM |

Reference: US20060074243A1, “Hydroxamic acid and amide compounds and their use as protease inhibitors” (Pharmacia Corporation, priority 2002, published 2006)
